US20230210831A1, “CHRONIC KIDNEY DISEASE TREATMENT OR PREVENTION METHOD” (Japan Tobacco Inc., priority 2019, published 2023)

Tests used:
Format in all cases: cell-based
[1] = tested on: Salmonella typhimurium TA98; assay: Ames test (reverse mutation test), TA98
Procedure: (§1) The solvent used herein was dimethyl sulfoxide (DMSO, 100 µL/plate).
(§2) The mixtures were preincubated at 37° C. for 20 minutes while shaking. […] Two plates per treatment were used.

[2] = tested on: Salmonella typhimurium TA1535; assay: Ames test (reverse mutation test), TA1535
Procedure: as §1, §2

[3] = tested on: Salmonella typhimurium TA1537; assay: Ames test (reverse mutation test), TA1537
Procedure: as §1, §2

[4] = tested on: Salmonella typhimurium TA100; assay: Ames test (reverse mutation test), TA100
Procedure: as §1, §2

Escherichia coli WP2uvrA = assay: Ames test (reverse mutation test), WP2uvrA
Procedure: as §1, §2

SMILES: Nc1cc(-c2cccc(OC(F)(F)F)c2)n(-c2cccc(F)c2)n1 [Metabolite G]
- Number of revertant colonies TA98 ([1]; S9 Mix +, dose 2.3 µg/plate): 35
- Number of revertant colonies TA98 ([1]; S9 Mix +, dose 6.9 µg/plate): 63
- Number of revertant colonies TA98 ([1]; S9 Mix +, dose 21 µg/plate): 76
- Number of revertant colonies TA98 ([1]; S9 Mix +, dose 62 µg/plate): 75
- Number of revertant colonies TA98 ([1]; S9 Mix +, dose 185 µg/plate): 45
- Number of revertant colonies TA98 ([1]; S9 Mix +, dose 556 µg/plate): 12
- Number of revertant colonies TA98 ([1]; S9 Mix +, dose 1667 µg/plate): 11
- Number of revertant colonies TA98 ([1]; S9 Mix +, dose 5000 µg/plate): 0
- Number of revertant colonies TA98 ([1]; S9 Mix -, dose 2.3 µg/plate): 31
- Number of revertant colonies TA98 ([1]; S9 Mix -, dose 6.9 µg/plate): 30
- Number of revertant colonies TA98 ([1]; S9 Mix -, dose 21 µg/plate): 31
- Number of revertant colonies TA98 ([1]; S9 Mix -, dose 62 µg/plate): 30
- Number of revertant colonies TA98 ([1]; S9 Mix -, dose 185 µg/plate): 13
- Number of revertant colonies TA98 ([1]; S9 Mix -, dose 556 µg/plate): 15
- Number of revertant colonies TA98 ([1]; S9 Mix -, dose 1667 µg/plate): 8
- Number of revertant colonies TA98 ([1]; S9 Mix -, dose 5000 µg/plate): 0
- Number of revertant colonies TA1535 ([2]; S9 Mix +, dose 556 µg/plate): 5
- Number of revertant colonies TA1535 ([2]; S9 Mix +, dose 1667 µg/plate): 4
- Number of revertant colonies TA1535 ([2]; S9 Mix -, dose 185 µg/plate): 9
- Number of revertant colonies TA1535 ([2]; S9 Mix -, dose 556 µg/plate): 0
- Number of revertant colonies TA1535 ([2]; S9 Mix -, dose 1667 µg/plate): 0
- potential to induce reverse mutations ([2]; TA1535 without S9 mix): showed potential to induce reverse mutations
- Number of revertant colonies TA1537 ([3]; S9 Mix +, dose 2.3 µg/plate): 13
- Number of revertant colonies TA1537 ([3]; S9 Mix +, dose 6.9 µg/plate): 13
- Number of revertant colonies TA1537 ([3]; S9 Mix +, dose 21 µg/plate): 16
- Number of revertant colonies TA1537 ([3]; S9 Mix +, dose 62 µg/plate): 15
- Number of revertant colonies TA1537 ([3]; S9 Mix +, dose 185 µg/plate): 13
- Number of revertant colonies TA1537 ([3]; S9 Mix +, dose 556 µg/plate): 0
- Number of revertant colonies TA1537 ([3]; S9 Mix +, dose 1667 µg/plate): 0
- Number of revertant colonies TA1537 ([3]; S9 Mix +, dose 5000 µg/plate): 0
- Number of revertant colonies TA1537 ([3]; S9 Mix -, dose 2.3 µg/plate): 15
- Number of revertant colonies TA1537 ([3]; S9 Mix -, dose 6.9 µg/plate): 15
- Number of revertant colonies TA1537 ([3]; S9 Mix -, dose 21 µg/plate): 17
- Number of revertant colonies TA1537 ([3]; S9 Mix -, dose 62 µg/plate): 7
- Number of revertant colonies TA1537 ([3]; S9 Mix -, dose 185 µg/plate): 0
- Number of revertant colonies TA1537 ([3]; S9 Mix -, dose 556 µg/plate): 0
- Number of revertant colonies TA1537 ([3]; S9 Mix -, dose 1667 µg/plate): 0
- Number of revertant colonies TA1537 ([3]; S9 Mix -, dose 5000 µg/plate): 0
- Number of revertant colonies TA100 ([4]; S9 Mix +, dose 2.3 µg/plate): 153
- Number of revertant colonies TA100 ([4]; S9 Mix +, dose 6.9 µg/plate): 248
- Number of revertant colonies TA100 ([4]; S9 Mix +, dose 21 µg/plate): 506
- Number of revertant colonies TA100 ([4]; S9 Mix +, dose 62 µg/plate): 630
- Number of revertant colonies TA100 ([4]; S9 Mix +, dose 185 µg/plate): 380
- Number of revertant colonies TA100 ([4]; S9 Mix +, dose 556 µg/plate): 82
- Number of revertant colonies TA100 ([4]; S9 Mix +, dose 1667 µg/plate): 94
- Number of revertant colonies TA100 ([4]; S9 Mix +, dose 5000 µg/plate): 226
- Number of revertant colonies TA100 ([4]; S9 Mix -, dose 2.3 µg/plate): 91
- Number of revertant colonies TA100 ([4]; S9 Mix -, dose 6.9 µg/plate): 101
- Number of revertant colonies TA100 ([4]; S9 Mix -, dose 21 µg/plate): 93
- Number of revertant colonies TA100 ([4]; S9 Mix -, dose 62 µg/plate): 90
- Number of revertant colonies TA100 ([4]; S9 Mix -, dose 185 µg/plate): 80
- Number of revertant colonies TA100 ([4]; S9 Mix -, dose 556 µg/plate): 59
- Number of revertant colonies TA100 ([4]; S9 Mix -, dose 1667 µg/plate): 61
- Number of revertant colonies TA100 ([4]; S9 Mix -, dose 5000 µg/plate): 47
- potential to induce reverse mutations ([4]; TA100 with S9 mix): showed potential to induce reverse mutations
- Number of revertant colonies WP2uvrA (Escherichia coli WP2uvrA; S9 Mix +, dose 2.3 µg/plate): 34
- Number of revertant colonies WP2uvrA (Escherichia coli WP2uvrA; S9 Mix +, dose 6.9 µg/plate): 39
- Number of revertant colonies WP2uvrA (Escherichia coli WP2uvrA; S9 Mix +, dose 21 µg/plate): 22
- Number of revertant colonies WP2uvrA (Escherichia coli WP2uvrA; S9 Mix +, dose 62 µg/plate): 24
- Number of revertant colonies WP2uvrA (Escherichia coli WP2uvrA; S9 Mix +, dose 185 µg/plate): 16
- Number of revertant colonies WP2uvrA (Escherichia coli WP2uvrA; S9 Mix +, dose 556 µg/plate): 14
- Number of revertant colonies WP2uvrA (Escherichia coli WP2uvrA; S9 Mix +, dose 1667 µg/plate): 9
- Number of revertant colonies WP2uvrA (Escherichia coli WP2uvrA; S9 Mix +, dose 5000 µg/plate): 14
- Number of revertant colonies WP2uvrA (Escherichia coli WP2uvrA; S9 Mix -, dose 2.3 µg/plate): 26
- Number of revertant colonies WP2uvrA (Escherichia coli WP2uvrA; S9 Mix -, dose 6.9 µg/plate): 23
- Number of revertant colonies WP2uvrA (Escherichia coli WP2uvrA; S9 Mix -, dose 21 µg/plate): 16
- Number of revertant colonies WP2uvrA (Escherichia coli WP2uvrA; S9 Mix -, dose 62 µg/plate): 14
- Number of revertant colonies WP2uvrA (Escherichia coli WP2uvrA; S9 Mix -, dose 185 µg/plate): 15
- Number of revertant colonies WP2uvrA (Escherichia coli WP2uvrA; S9 Mix -, dose 556 µg/plate): 10
- Number of revertant colonies WP2uvrA (Escherichia coli WP2uvrA; S9 Mix -, dose 1667 µg/plate): 17
- Number of revertant colonies WP2uvrA (Escherichia coli WP2uvrA; S9 Mix -, dose 5000 µg/plate): 6
